Earlier results in patent EP4817601A1, “NANOPARTICLES COMPRISING SIROLIMUS AND ALBUMIN, PHARMACEUTICAL COMPOSITION FOR SUBCUTANEOUS ADMINISTRATION, COMPRISING SAME, AND PREPARATION METHOD THEREFOR” (SNBioscience Inc., priority 2023, dated 2025).

Settings: poorly soluble drug; background statement

CO[C@H]1C[C@@H]2CC[C@@H](C)[C@@](O)(O2)C(=O)C(=O)N2CCCC[C@H]2C(=O)O[C@H]([C@H](C)C[C@@H]2CC[C@@H](O)[C@H](OC)C2)CC(=O)[C@H](C)/C=C(\C)[C@@H](O)[C@@H](OC)C(=O)[C@H](C)C[C@H](C)/C=C/C=C/C=C/1C [Sirolimus]
bioavailability (BA): 14%
